System: 653999-131-R-J2-PDC complex spheroid viability
Test: Anticancer human tumor 653999-131-R-J2-PDC patient-derived lung adenocarcinoma cell line growth inhibition
Conditions: for IC50: curve of first compound; for viability, T/C: stronger effect = lower value
Excerpt: Multicellular complex tumor spheroid response to LSD1 Inhibitor Iadademstat in combination with a variety of drugs and investigational agents in selected tumor cell lines
The current study was undertaken to assess response to LSD1 inhibitors in combination with standard-of-care drugs and investigational agents in solid tumor complex spheroid models as well as in the K-562 leukemia. Complex spheroids include a stromal component modeled by human endothelial cells (HUVEC) and fibroblasts modeled by human mesenchymal stem cells (MSCs). The concentration ranges selected for each drug and investigational agent were based upon clinically achievable concentrations if the clinical Cmax of the agent was known.
Compounds. The drugs and investigational agents used in this study are listed on Table 1. All of the agents used, including staurosporine (NSC755774) and gemcitabine (NSC613327), were obtained from the Developmental Therapeutics Program, NCI. FDA-approved anticancer drugs are available from the NCI at http://dtp.nci.nih.gov/branches/dscb/oncology_drugset_explanation.html. Drugs and investigational agents were >95% pure by proton nuclear magnetic resonance (NMR) and liquid chromatography/mass spectrometry (LC/MS). Stock solutions were prepared at 400x in DMSO, stored at -70 degrees C, and diluted in fresh medium prior to their use. The final concentration of DMSO in cell culture wells never exceeded 0.25% (v/v). The FDA-approved anticancer drug set is available from the Developmental Therapeutics Program at https://dtp.cancer.gov/organization/dscb/obtaining/available_plates.htm. All drugs and investigational agents were tested over a range starting from a high concentration at or near the clinical Cmax and decreasing in half-log increments. If the clinical Cmax for an agent had not been determined, the highest concentration tested was 10 microM.
Cell Lines. The patient-derived cancer cell (PDC) lines: 292921-168-R-J2-PDC, K24384-001-R-PDC, and 521955-158-R2-J5-PDC pancreatic carcinomas, 556581-035-R-J1 ovarian carcinoma, 324938-238-R-J1-PDC, 855422-203-R-J1-PDC and 883617-216-R-J1-PDC urothelial bladder carcinomas, 743489-274-T-PDC renal cell carcinoma, 138582-R-J1 Merkel cell tumor, K60290-347-R-J1 and K57222-313-R-J1-PDC glioblastomas, 653999-131-R-J2-PDC, LG0703-F948-PDC, and 349418-098-R-PDC non-small cell lung carcinomas, 885512-296-R-J2-PDC, 171881-019-R-J1-PDC breast carcinomas and 186277-243-T-J2-PDC and 233499-124-R-J2-PDC colon carcinomas were obtained from the NCI Patient-Derived Models Repository (PDMR, https://pdmr.cancer.gov). The established cell lines NCI/ADR-RES (RRID:CVCL_14520 and OVCAR-5 (RRID:CVCL_1628) ovarian carcinomas, 786-O (RRID:CVCL_1051) and A498 (RRID:CVCL_A498) renal cell carcinoma, NCI-H211 (ATCC, cat. CRL-5824; RRID:CVCL_1529), NCI-H196 (ATCC, cat. CRL-5823, RRID:CVCL_1509), SW 1271 (ATCC, cat. CRL-2177, RRID:CVCL_1716) and NCI-H1876 (ATCC, cat. CRL-5902, RRID:CVCL_1503) small cell lung carcinomas, MDA-MB-231 (RRID:CVCL_0062) and MDA-MB-468 (RRID:CVCL_0419)breast carcinomas (10-12). Pooled donor human umbilical vein endothelial cells (HUVEC, Lonza, cat. CC-2519) and human mesenchymal stem cells (hMSC, Lonza, cat. PT-2501) were purchased from Lonza (Walkersville, MD).
Cell Culture. All cells were maintained in an incubator at 37 degrees C and 5% CO2 with 95% humidity. The PDC lines were cultured according to standard operating procedures established by the NCI PDMR (https://pdmr.cancer.gov). Briefly all PDCs were thawed and cultured in Matrigel-coated flasks prepared with a working solution of 1X Ham's F-12 nutrient mix, without supplementation (Invitrogen, Waltham, MA, cat. 11765054), 100 U/mL penicillin-streptomycin (Invitrogen, cat. 15140122), and 2.5% Matrigel (Corning Inc., Corning, NY, cat. 354248) for the first three passages. […]
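Further: spheroids exposed to agents for seven days before readout.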

With CC1COCCN1c1cc(C2(S(C)(=N)=O)CC2)nc(-c2ccnc3[nH]ccc23)n1 (stereo not given) + NC1CCC(NC2CC2c2ccccc2)CC1 the IC50 (second compound 0.1 µM) was 736 nM, the IC50 (second compound 0.316 µM) was 832 nM and the IC50 (second compound 1 µM) was 840 nM. For the same compound, the IC50 (second compound 3.16 µM) was 674 nM, the IC50 (second compound 10 µM) was 698 nM and the viability, T/C (second compound 0.1 µM, first compound 0.0316 µM) was 104%. It also gave a viability, T/C (second compound 0.1 µM, first compound 0.1 µM) of 81.3%, a viability, T/C (second compound 0.1 µM, first compound 0.316 µM) of 63.7% and a viability, T/C (second compound 0.1 µM, first compound 1 µM) of 46.4%. The viability, T/C (second compound 0.1 µM, first compound 3.16 µM) was 32.8%, the viability, T/C (second compound 0.1 µM, first compound 10 µM) was 34.1% and the viability, T/C (second compound 0.316 µM, first compound 0.0316 µM) was 94.1%. It also gave a viability, T/C (second compound 0.316 µM, first compound 0.1 µM) of 80.1%, a viability, T/C (second compound 0.316 µM, first compound 0.316 µM) of 73.8% and a viability, T/C (second compound 0.316 µM, first compound 1 µM) of 45.5%. The viability, T/C (second compound 0.316 µM, first compound 3.16 µM) was 30%, the viability, T/C (second compound 0.316 µM, first compound 10 µM) was 31% and the viability, T/C (second compound 1 µM, first compound 0.0316 µM) was 102%. The viability, T/C (second compound 1 µM, first compound 0.1 µM) was 81%, the viability, T/C (second compound 1 µM, first compound 0.316 µM) was 67.4% and the viability, T/C (second compound 1 µM, first compound 1 µM) was 46.3%. For the same compound, the viability, T/C (second compound 1 µM, first compound 3.16 µM) was 34.1%, the viability, T/C (second compound 1 µM, first compound 10 µM) was 28.2% and the viability, T/C (second compound 3.16 µM, first compound 0.0316 µM) was 101%. It also gave a viability, T/C (second compound 3.16 µM, first compound 0.1 µM) of 89.4%, a viability, T/C (second compound 3.16 µM, first compound 0.316 µM) of 68.9% and a viability, T/C (second compound 3.16 µM, first compound 1 µM) of 39.1%. For the same compound, the viability, T/C (second compound 3.16 µM, first compound 3.16 µM) was 33.6%, the viability, T/C (second compound 3.16 µM, first compound 10 µM) was 32.3% and the viability, T/C (second compound 10 µM, first compound 0.0316 µM) was 103%. It also gave a viability, T/C (second compound 10 µM, first compound 0.1 µM) of 66.4%, a viability, T/C (second compound 10 µM, first compound 0.316 µM) of 72.5% and a viability, T/C (second compound 10 µM, first compound 1 µM) of 43.8%. It also gave a viability, T/C (second compound 10 µM, first compound 3.16 µM) of 30% and a viability, T/C (second compound 10 µM, first compound 10 µM) of 27.4%.

CCc1c2c(nc3ccc(O)cc13)-c1cc3c(c(=O)n1C2)COC(=O)[C@]3(O)CC + NC1CCC(NC2CC2c2ccccc2)CC1 showed an IC50 (second compound 0.1 µM) of less than 0.949 nM, an IC50 (second compound 0.316 µM) of less than 0.949 nM and an IC50 (second compound 1 µM) of less than 0.949 nM. The IC50 (second compound 3.16 µM) was less than 0.949 nM, the IC50 (second compound 10 µM) was less than 0.949 nM and the viability, T/C (second compound 0.1 µM, first compound 0.000949 µM) was 22%. The viability, T/C (second compound 0.1 µM, first compound 0.003 µM) was 13.8%, the viability, T/C (second compound 0.1 µM, first compound 0.00949 µM) was 11.8% and the viability, T/C (second compound 0.1 µM, first compound 0.03 µM) was 7.96%. It also gave a viability, T/C (second compound 0.1 µM, first compound 0.0949 µM) of 5.01%, a viability, T/C (second compound 0.1 µM, first compound 0.3 µM) of 5% and a viability, T/C (second compound 0.316 µM, first compound 0.000949 µM) of 19.8%. For the same compound, the viability, T/C (second compound 0.316 µM, first compound 0.003 µM) was 15.9%, the viability, T/C (second compound 0.316 µM, first compound 0.00949 µM) was 9.62% and the viability, T/C (second compound 0.316 µM, first compound 0.03 µM) was 7.91%. For the same compound, the viability, T/C (second compound 0.316 µM, first compound 0.0949 µM) was 3.58%, the viability, T/C (second compound 0.316 µM, first compound 0.3 µM) was 6.63% and the viability, T/C (second compound 1 µM, first compound 0.000949 µM) was 21.6%. It also gave a viability, T/C (second compound 1 µM, first compound 0.003 µM) of 15.2%, a viability, T/C (second compound 1 µM, first compound 0.00949 µM) of 9.88% and a viability, T/C (second compound 1 µM, first compound 0.03 µM) of 7.86%. The viability, T/C (second compound 1 µM, first compound 0.0949 µM) was 4.29%, the viability, T/C (second compound 1 µM, first compound 0.3 µM) was 4.06% and the viability, T/C (second compound 3.16 µM, first compound 0.000949 µM) was 22.2%. The viability, T/C (second compound 3.16 µM, first compound 0.003 µM) was 17.5%, the viability, T/C (second compound 3.16 µM, first compound 0.00949 µM) was 12.6% and the viability, T/C (second compound 3.16 µM, first compound 0.03 µM) was 7.56%. It also gave a viability, T/C (second compound 3.16 µM, first compound 0.0949 µM) of 4.32%, a viability, T/C (second compound 3.16 µM, first compound 0.3 µM) of 3.82% and a viability, T/C (second compound 10 µM, first compound 0.000949 µM) of 25.5%. For the same compound, the viability, T/C (second compound 10 µM, first compound 0.003 µM) was 15.8%, the viability, T/C (second compound 10 µM, first compound 0.00949 µM) was 9.94% and the viability, T/C (second compound 10 µM, first compound 0.03 µM) was 6.03%. For the same compound, the viability, T/C (second compound 10 µM, first compound 0.0949 µM) was 2.71% and the viability, T/C (second compound 10 µM, first compound 0.3 µM) was 2.44%.

— PubChem BioAssay AID1918939 (Molecular Pharmacology Branch, DTP, NCI, 2023)
